The results in this text go back to ChEMBL document CHEMBL3046097, “Synthesis and QSAR analysis of chalcone derivatives as nitric oxide inhibitory agent” (Med Chem Res, 2012).

The test system of data set [1] is RAW264.7. Description: Anti-inflammatory activity in Mus musculus (mouse) RAW264.7 cells assessed as inhibition of IFN-gamma/LPS-induced NO production after 17 to 20 hr by Griess assay. The format is functional, cell-based.
For data set [2], the system named is RAW264.7. The data set is described as follows: Cytotoxicity against Mus musculus (mouse) RAW264.7 cells assessed as reduction in viable cells at 250 uM after 17 to 20 hr by MTT assay. Particulars: raw264.7, 250 µM. Format: cell-based.
For data set [3], the system named is RAW264.7. The data set is described as follows: Cytotoxicity against Mus musculus (mouse) RAW264.7 cells assessed as reduction in viable cells at 25 uM after 17 to 20 hr by MTT assay. The format is cell-based. The settings on record: raw264.7, 25 µM.
The test system of data set [4] is RAW264.7. The data set is described as follows: Cytotoxicity against Mus musculus (mouse) RAW264.7 cells assessed as reduction in viable cells at 50 uM after 17 to 20 hr by MTT assay. The format is cell-based. Particulars: raw264.7, 50 µM.

SMILES strings stand for the structures.

Take `O=C(/C=C/c1ccc(O)cc1)c1cccs1`: in the data set with RAW264.7 [1] (read-out: IC50), the IC50 turned out to be 46.8 µM.

For `Cc1ccc(C(=O)/C=C/c2ccc(F)cc2)o1`, the IC50 in the data set on RAW264.7 [1] (read-out: IC50) and in the data set with RAW264.7 [1] (read-out: pIC50 (converted)) was 17 µM each time.

For `O=C(/C=C/c1ccccc1O)c1ccco1`, the IC50 in the data set on RAW264.7 [1] (read-out: IC50) is 19.3 µM; in the data set with RAW264.7 [1] (read-out: pIC50 (converted)) it was 19.5 µM.

`O=C(/C=C/c1ccccc1O)c1cccs1`: the IC50 in the data set on RAW264.7 [1] (read-out: IC50) was 16.2 µM.

On to `COc1ccc(OC)c(/C=C/C(=O)c2ccco2)c1`, for which the IC50 in the data set with RAW264.7 [1] (read-out: IC50) is 16 µM; in the data set on RAW264.7 [1] (read-out: pIC50 (converted)) it was 15.8 µM.

On to `COc1ccc(OC)c(/C=C/C(=O)c2ccc(Cl)s2)c1`, for which the IC50 in the data set with RAW264.7 [1] (read-out: IC50) stood at 26 µM.

In the case of `Cc1ccc(C(=O)/C=C/c2ccccc2Cl)o1`, the IC50 with RAW264.7 [1] (read-out: IC50) and in the data set with RAW264.7 [1] (read-out: pIC50 (converted)) was 17 µM each time.

Consider `Cc1ccc(C(=O)/C=C/c2ccco2)o1`, for which the Activity result in the data set with RAW264.7 [2], with RAW264.7 [3] and in the data set on RAW264.7 [4] was “Non-toxic” in each case. In addition, the IC50 in the data set with RAW264.7 [1] (read-out: IC50) is 21.3 µM; in the data set on RAW264.7 [1] (read-out: pIC50 (converted)), 21.4 µM.

With `Cc1cc(C(=O)/C=C/c2ccccc2O)c(C)o1`, the IC50 in the data set with RAW264.7 [1] (read-out: IC50) turned out to be 13.8 µM.

As to `Cc1cc(C(=O)/C=C/c2cccc(O)c2)c(C)o1`, the IC50 with RAW264.7 [1] (read-out: IC50) was 7.96 µM.

With `Cc1cc(C(=O)/C=C/c2ccc(O)cc2)c(C)o1`, the IC50 with RAW264.7 [1] (read-out: IC50) is 13.5 µM.

Turning to `Cc1cc(C(=O)/C=C/c2ccccc2OCC(=O)O)c(C)o1`, the IC50 with RAW264.7 [1] (read-out: IC50) was not below 50 µM.

`O=C(/C=C/c1ccccc1O)c1ccccn1`: the IC50 with RAW264.7 [1] (read-out: IC50) turned out to be 29.9 µM.

As to `O=C(/C=C/c1cccc(O)c1)c1ccccn1`, the IC50 in the data set with RAW264.7 [1] (read-out: IC50) stood at 49.5 µM.

Take `O=C(/C=C/c1ccccc1O)c1ccncc1`: the IC50 in the data set on RAW264.7 [1] (read-out: IC50) was found to be 31.7 µM.

For `O=C(/C=C/c1cccc(O)c1)c1ccncc1`, the IC50 in the data set on RAW264.7 [1] (read-out: IC50) was not below 50 µM.

As for `O=C(/C=C/c1ccc(O)cc1)c1ccncc1`, the IC50 in the data set with RAW264.7 [1] (read-out: IC50) was not below 50 µM.

As for `COc1ccc(OC)c(/C=C/C(=O)c2cccs2)c1`, in the data set on RAW264.7 [1] (read-out: IC50), the IC50 stood at 38.7 µM.

With `O=C(/C=C/c1ccccc1O)c1ccc(Cl)s1`, the IC50 in the data set on RAW264.7 [1] (read-out: IC50) amounted to 23.4 µM.

On to `O=C(/C=C/c1cccc(O)c1)c1ccc(Cl)s1`, for which the IC50 in the data set on RAW264.7 [1] (read-out: IC50) was determined as 33.3 µM.

`O=C(/C=C/c1ccc(O)cc1)c1ccc(Cl)s1`: in the data set on RAW264.7 [1] (read-out: IC50), the IC50 is not below 50 µM.

For `O=C(/C=C/c1cccc(O)c1)c1ccco1`, the IC50 was 24.8 µM in the data set on RAW264.7 [1] (read-out: IC50) and 24.5 µM in the data set with RAW264.7 [1] (read-out: pIC50 (converted)).

For the compound `O=C(/C=C/c1ccc(O)cc1)c1ccco1`, the IC50 with RAW264.7 [1] (read-out: IC50) is 24.9 µM; with RAW264.7 [1] (read-out: pIC50 (converted)) it was 25.1 µM.

On to `Cc1ccc(C(=O)/C=C/c2ccccc2O)o1`, for which the results for the IC50 in the data set on RAW264.7 [1] (read-out: IC50) and in the data set with RAW264.7 [1] (read-out: pIC50 (converted)) were 5.88 µM and 6.92 µM, respectively.

For the compound `Cc1ccc(C(=O)/C=C/c2cccc(O)c2)o1`, the IC50 with RAW264.7 [1] (read-out: IC50) was 9.35 µM; with RAW264.7 [1] (read-out: pIC50 (converted)), 9.33 µM.

For `Cc1ccc(C(=O)/C=C/c2ccc(O)cc2)o1`, the results for the IC50 with RAW264.7 [1] (read-out: IC50) and in the data set on RAW264.7 [1] (read-out: pIC50 (converted)) were 16.3 µM and 16.2 µM, respectively.

Regarding `COc1ccc(OC)c(/C=C/C(=O)c2ccc(C)o2)c1`, the IC50 in the data set on RAW264.7 [1] (read-out: IC50) and in the data set on RAW264.7 [1] (read-out: pIC50 (converted)) was 2.51 µM each time.

For the compound `Cc1ccc(C(=O)/C=C/c2ccccc2OCC(=O)O)o1`, the IC50 in the data set on RAW264.7 [1] (read-out: IC50) was not below 50 µM.

As for `Cc1ccc(C(=O)/C=C/c2ccc([N+](=O)[O-])cc2)o1`, the IC50 with RAW264.7 [1] (read-out: IC50) and with RAW264.7 [1] (read-out: pIC50 (converted)) was 14.5 µM each time.

With `COc1cc(OC)c(/C=C/C(=O)c2ccc(C)o2)c(OC)c1`, the IC50 in the data set with RAW264.7 [1] (read-out: IC50) and with RAW264.7 [1] (read-out: pIC50 (converted)) was 5.62 µM each time.

On to `COc1ccc(/C=C/C(=O)c2ccc(C)o2)c(OC)c1OC`, for which the IC50 with RAW264.7 [1] (read-out: IC50) and with RAW264.7 [1] (read-out: pIC50 (converted)) was 4.47 µM each time.

As for `COc1ccc(/C=C/C(=O)c2ccc(C)o2)c(F)c1`, the IC50 in the data set on RAW264.7 [1] (read-out: IC50) is 5.31 µM; in the data set on RAW264.7 [1] (read-out: pIC50 (converted)), 12.3 µM.

Turning to `COc1cccc(/C=C/C(=O)c2ccc(C)o2)c1OC`, the Activity result in the data set on RAW264.7 [2], in the data set on RAW264.7 [3] and in the data set on RAW264.7 [4] was “Toxic” throughout. Besides, the IC50 in the data set on RAW264.7 [1] (read-out: IC50) was 2.26 µM; in the data set with RAW264.7 [1] (read-out: pIC50 (converted)), 2.24 µM.

Take `COc1cccc(OC)c1/C=C/C(=O)c1ccc(C)o1`: the IC50 was 6.45 µM in the data set with RAW264.7 [1] (read-out: IC50) and 6.46 µM with RAW264.7 [1] (read-out: pIC50 (converted)).

For the compound `Cc1ccc(C(=O)/C=C/c2ccccc2F)o1`, the IC50 with RAW264.7 [1] (read-out: IC50) and in the data set on RAW264.7 [1] (read-out: pIC50 (converted)) was 12.9 µM throughout.

Take `Cc1ccc(C(=O)/C=C/c2cccc(Cl)c2)o1`: the IC50 with RAW264.7 [1] (read-out: IC50) and with RAW264.7 [1] (read-out: pIC50 (converted)) was 7.76 µM throughout.

As to `Cc1ccc(C(=O)/C=C/c2ccc(Cl)cc2)o1`, the IC50 in the data set on RAW264.7 [1] (read-out: IC50) and with RAW264.7 [1] (read-out: pIC50 (converted)) was 11.5 µM throughout.

Regarding `Cc1ccc(C(=O)/C=C/c2cccc(F)c2)o1`, the IC50 was 16.1 µM in the data set on RAW264.7 [1] (read-out: IC50) and 16.2 µM in the data set on RAW264.7 [1] (read-out: pIC50 (converted)).

In the case of `COc1cc(O)cc(O)c1C(=O)/C=C/c1ccccc1` [CARDAMOMIN], in the data set with RAW264.7 [1] (read-out: IC50), the IC50 is 11.5 µM.

With `COC(=O)[C@@H](N)CCCNC(=N)N[N+](=O)[O-]` [L-NAME], the IC50 in the data set on RAW264.7 [1] (read-out: IC50) is 23.2 µM.
